For test [1], the system named is VPA-exposed offspring. Briefly: Locomotor activity and repetitive behaviours (self-grooming) in activity cage, rat VPA model. The test is classed as in vivo, Sprague-Dawley rats. The settings on record: CBDA 20 mg/kg/day i.p. PND 34-56. On the procedure:
Pregnant Sprague-Dawley rats (Charles River, Calco, Italy), received a single intraperitoneal injection of 500 mg/kg sodium valproate on the 12.5 day after conception, and control females were injected with physiological saline at the same time. Sodium valproate (Sigma Aldrich, Milan, IT) was dissolved in saline at a concentration of 250 mg/ml.
CBDA was dissolved in ethanol, cremophor and saline (1:1:18). Symptomatic treatment with CBDA at doses of 2 and 20 mg/kg/day i.p. was performed starting from PND 34 (early adolescence) till 56 (early adulthood), both in male and female offspring of dams injected with VPA 500 mg/kg (or vehicle) on day 12.5 after conception. At PND 56, a series of behavioural tests was performed in order to assess the effect of chronic CBDA on sociability, social novelty, short-term memory, locomotion and stereotyped/repetitive behaviours.
Locomotor activity and repetitive behaviours: Locomotor activity was recorded in an activity cage for 20 minutes with the aid of Anymaze program (Ugo Basile, Italy). In this period, repetitive behaviours (self-grooming and digging) were measured by an observer blind to the treatment group.

In test [2] the test system is MeCP2 KO mice. Briefly: Symptom scoring, mouse model of Rett syndrome. Format: in vivo. The settings on record: chronic CBDA 2 and 20 mg/kg i.p., FIG. 7-9. On the procedure:
CBDA was administered daily at the dose of 2 or 20 mg/kg i.p. starting from PND 28 and the following signs were scored every other day: hindlimb clasping (indication of motor imbalance), tremor, gait (measure of coordination), breathing, mobility and general condition.
The CBDA was dissolved in ethanol, cremophor and saline (1:1:18). Starting from PND 28, mice received a daily intraperitoneal injection of CBDA (or vehicle) at the dose of 2 or 20 mg/kg. Animals were then scored every other day to evaluate the effect of CBDA treatment on motor symptoms (hindlimb clasping, gait, mobility) as well as neurological signs and general conditions (breathing abnormalities, tremors and general condition) present in MeCP2 knockout (KO) mice.
Each of the six symptoms was scored from 0 to 2 (0 corresponds to the symptom being absent or the same as in the wild type (WT) animal; 1 when the symptom was present; 2 when the symptom was severe).
Mobility: the mouse is observed when placed on bench, then when handled gently. 0=as WT. 1=reduced movement when compared with WT: extended freezing period when first placed on bench and longer periods spent immobile. 2=no spontaneous movement when placed on the bench; mouse can move in response to a gentle prod or a food pellet placed nearby.
Gait: 0=as WT. […]

The test system of test [3] is Ube3am-/p+ (AS) mice. The experiment in a line: Clasping test, mouse model of Angelman syndrome. The test is classed as in vivo. The settings on record: chronic treatment (30 days) CBDA 20 mg/kg i.p., 10 weeks of age, vs AS vehicle, FIG. 12. The protocol: (§1) Heterozygous mice with maternal deficiency of Ube3A (Ube3am−/p+) and wild type (Ube3am+/p+) were purchased from The Jackson Laboratory (Jackson code: B6.129S7-Ube3a tm1Alb/J) and maintained in a C57BL/6 background.
(§2) Drugs were dissolved in 1:1:18 ethanol:cremophor:0.9% saline, for intraperitoneal (i.p.) administration. […] CBDA was administered at 20 mg/kg.
Clasping: The clasping test assesses ataxia in mice. Mice were suspended by the base of the tail and their behaviours were recorded for 30 seconds. The time for which the mice clasped their hind limbs was recorded. The time was then scored as follows: 4, 15-30 s, 3, 10-15 s, 2, 5-10 s, 1, 0-5 s and 0, 0 s

For test [4], the system named is Ube3am-/p+ (AS) mice. The experiment in a line: Rotarod test, mouse model of Angelman syndrome. The test is classed as in vivo. The settings on record: chronic treatment (30 days) CBDA 20 mg/kg i.p., 10 weeks, vs AS vehicle, FIG. 13. On the procedure: as §1, §2
Rotarod: The rotarod test assesses balance and motor coordination of mice. Mice have been measured for the time (in seconds) of equilibrium before falling on a rotary cylinder by a magnet that, activated from the fall of the mouse on the plate, allows to record the time of permanence on the cylinder. […] The animals were analysed by 2 separate tests at 1-h interval in the same day.

Test [5] deals with Ube3am-/p+ (AS) mice. Briefly: Tail suspension test, mouse model of Angelman syndrome. The settings on record: CBDA 20 mg/kg i.p., vs AS vehicle, FIG. 15. The test is classed as in vivo. The protocol: as §1
Drugs were dissolved in 1:1:18 ethanol:cremophor:0.9% saline, for intraperitoneal (i.p.) administration. Drug treatment was performed daily for 35 days. CBDA was administered at 20 mg/kg.
Tail suspension: The tail suspension test assesses depressive-like behaviour in mice. Mice were individually suspended by the tail on a horizontal bar (50 cm from floor) using adhesive tape placed approximately 4 cm from the tip of the tail. The duration of immobility was recorded in seconds over a period of 6 minutes by a time recorder. Immobility time was defined as the absence of escape-oriented behaviour.

In the case of `C=C(C)[C@@H]1CCC(C)=C[C@H]1c1c(O)cc(CCCCC)c(C(=O)O)c1O` [CBDA, Cannabidiolic acid], the locomotor activity entry in test [1] (VPA offspring, FIG. 2B) was “able to normalize this”. In addition, the “repetitive behaviours (time spent in compulsive self-grooming)” value in test [1] (VPA-exposed offspring, FIG. 2A) is listed as “significantly normalize this behaviour”. For the same molecule, the “total symptom score (tremor, breathing, hindlimb clasping, gait, general condition, mobility)” value in test [2] was “partially improve these symptoms and decrease the total symptom score, however these data were not significant”. Further, the clasping duration entry in test [3] is recorded as “significantly reduced clasping duration”. The “latency to fall (rotarod)” value in test [4] is “significantly reduced latency to fall”. Also, the “duration of immobility time” value in test [5] is recorded as “significantly reduced the duration of immobility time”.

Values taken from patent publication US12150927B2, “Use of cannabidiolic acid in the treatment of autism spectrum disorder and associated disorders” (GW Research Limited, priority 2016, dated 2024).
